# How the values were obtained:
# [1] = system: Patients with Primary or Recurrent Pterygium; test: Phase 2a clinical trial in pterygium patients: ocular symptom and PSLQ questionnaire scores; assay type: in vivo, human
# Source text: 2-HP-β-CD Formulation I was used as vehicle.
# A trend of effects also remained after the stop of treatment at weeks 8, 16, and 24. The other questions didn't generate statistically significant effects.
# These ocular symptoms are often observed in MGD patients. Scores of these symptoms were graded by patients as part of PSLQ questionnaires.
# [2] = Aqueous solution at 37° C.; concentration of CDs 1.0 × 10^−2M; cited from earlier work
compound,measurement,setting,value
2-Hydroxypropyl-beta-cyclodextrin [Formulation 2-HP-β-CD],"PSLQ Overall Average Score, Baseline Mean (SD)","[1]; Baseline, Modified Intent-to-Treat Population, N = 23",0.70 (0.66)
same,"PSLQ Average Ocular Symptom Score, Baseline Mean (SD)","[1]; Baseline, mITT, N = 23",0.88 (0.81)
same,"PSLQ Average Quality of Life Impact Score, Baseline Mean (SD)","[1]; Baseline, mITT, N = 23",0.57 (0.92)
same,"PSLQ Average Vision-Related Functioning Score, Baseline Mean (SD)","[1]; Baseline, mITT, N = 23",0.57 (0.80)
same,"PSLQ Average Vision-Related Functioning Score, Change from Baseline Mean (SD)","[1]; Week 2, mITT, N = 23",−0.27 (0.65)
same,"PSLQ Average Vision-Related Functioning Score, Change from Baseline Mean (SD)","[1]; Week 4, mITT, N = 23",−0.48 (0.65)
same,"PSLQ Average Vision-Related Functioning Score, Change from Baseline Mean (SD)","[1]; Week 8, mITT, N = 23",−0.43 (0.62)
same,"PSLQ Average Vision-Related Functioning Score, Change from Baseline Mean (SD)","[1]; Week 16, mITT, N = 23",−0.23 (0.56)
same,"PSLQ Average Vision-Related Functioning Score, Change from Baseline Mean (SD)","[1]; Week 24, mITT, N = 23",−0.11 (1.1)
same,PSLQ scores compared to the baseline (in words),"[1]; human, in vivo",significant improvements
"OC[C@H]1O[C@@H]2O[C@H]3[C@H](O)[C@@H](O)[C@@H](O[C@H]4[C@H](O)[C@@H](O)[C@@H](O[C@H]5[C@H](O)[C@@H](O)[C@@H](O[C@H]6[C@H](O)[C@@H](O)[C@@H](O[C@H]7[C@H](O)[C@@H](O)[C@@H](O[C@H]1[C@H](O)[C@H]2O)O[C@@H]7CO)O[C@@H]6CO)O[C@@H]5CO)O[C@@H]4CO)O[C@@H]3CO [Alpha-CD, alpha-cyclodextrin]",Increase in Absorbance (600 nm) Due to Cholesterol Dissolved by CDs,[2],zero
"COCC1O[C@@H]2O[C@@H]3C(COC)O[C@H](O[C@@H]4C(COC)O[C@H](O[C@@H]5C(COC)O[C@H](O[C@@H]6C(COC)O[C@H](O[C@@H]7C(COC)O[C@H](O[C@@H]8C(COC)O[C@H](O[C@H]1C(O)C2OC)C(OC)C8O)C(OC)C7O)C(OC)C6O)C(OC)C5O)C(OC)C4O)C(OC)C3O (stereo partly drawn) [DOM-beta-CD, 2,6-Di-O-methyl-beta-cyclodextrin]",Increase in Absorbance (600 nm) Due to Cholesterol Dissolved by CDs,[2],a remarkable increase in absorbance
"OC[C@H]1O[C@@H]2O[C@H]3[C@H](O)[C@@H](O)[C@@H](O[C@H]4[C@H](O)[C@@H](O)[C@@H](O[C@H]5[C@H](O)[C@@H](O)[C@@H](O[C@H]6[C@H](O)[C@@H](O)[C@@H](O[C@H]7[C@H](O)[C@@H](O)[C@@H](O[C@H]8[C@H](O)[C@@H](O)[C@@H](O[C@H]9[C@H](O)[C@@H](O)[C@@H](O[C@H]1[C@H](O)[C@H]2O)O[C@@H]9CO)O[C@@H]8CO)O[C@@H]7CO)O[C@@H]6CO)O[C@@H]5CO)O[C@@H]4CO)O[C@@H]3CO [Gamma-CD, gamma-cyclodextrin]",Increase in Absorbance (600 nm) Due to Cholesterol Dissolved by CDs,[2],zero
"COC(=O)c1ccc2c(c1)NC(=O)/C2=C(\Nc1ccc(N(C)C(=O)CN2CCN(C)CC2)cc1)c1ccccc1 [Nintedanib 0.2%, nintedanib, reference compound]","PSLQ scores, Nintedanib 0.2% vs Vehicle (in words)",[1]; pterygium patients with dry eye condition,no statistically significant differences

# From patent US11166977B2, “Compositions for treating meibomian gland dysfunction” (ADS THERAPEUTICS LLC, priority 2019, dated 2021)
